Test results taken from patent EP2884284A1, “Dry diagnostic reagent” (priority 2013, dated 2015).

How the values were obtained:
[1] = Hygroscopicity measurement by mass increase in a glove box at relative air humidity > 50%; assay type: physicochemical; settings: 1.0g sample, 22.5°C to […], 96 hours, referring to the initial mass
Method: The hygroscopicity of compounds was measured by weighing (Mettler AT261 "Delta Range" balance) in the samples at the start of the experiment and at certain time points within a total period of 96 hours. The increase in mass (in %) was calculated for each sample as: (mt -mt0)/(mt0) × 100% [formula] • wherein mt is the mass of the sample at a certain time t and Mt0 is the mass of the sample at the start when placing it in the glove box.

citrated whole blood [2] = assay: ROTEM EXTEM assay, recalcification with CLG solutions, tissue factor activation; settings: CLG solution 396 mg/mL, 4 µL in 300 µL citrated whole blood, extem reagent, student t test p = 0.05, n = 10
Method: (§1) The influence of CLG on coagulation was determined using a ROTEM® device (TEM Innovations GmbH, Germany) and whole blood from healthy volunteers using either the EXTEM assay or the NATEM assay. Coagulation was therefore either initiated using the tissue factor based ex-tem® reagent (+recalcification) (TEM Innovations GmbH, Germany) or only by recalcification of the citrated whole blood sample. […]; ROTEM® reagent; TEM Innovations GmbH, Germany). Solutions of CLG were taken to show the influence of the substance independent of the dissolution behavior of the substance.
In detail, 300 µL citrated whole blood were taken, mixed with 4 µL of the respective solution of CLG of each concentration or of the star-tem@ reagent, and 16 µL of a 0.9% (m/V) NaCl-solution in ultrapure water. Blood clotting was initiated using the tissue factor based extem® reagent. […] Therefore it is possible to recalcify standard citrated whole blood and restore its clotting ability by using CLG solutions. This is depicted in Figure 2, wherein the data of a ROTEM experiment using two differently concentrated solutions of CLG (320 mg/mL and 396 mg/mL) were used. […]

citrated whole blood [3] = assay: ROTEM NATEM assay, recalcification only (contact pathway activation)
Method: as §1
In addition the clotting properties were investigated when coagulation of whole blood (using 300µL of citrated whole blood) was not initiated using tissue factor but only contact pathway activation, i.e. the citrated whole blood was recalcified using either the star-tem@ reagent or a CLG solution. The measurement was performed according to the automated ROTEM® sequence. Normal values were taken from the "expected values" section of the "instructions for use" sheet provided together with the star-tem@ reagent. A comparison was carried out with the star-tem@ reagent and the CLG solution with a concentration of 396 mg/mL of example 2. […] Table 1: Measurement values of the data determined in Example 2

citrated whole blood [4] = assay: ROTEM ex-tem assay, recalcification with freeze-dried pellets; settings: p = 0.05, n = 10
Method: The compatibility with coagulation measurement was determined using the ROTEM® device. The measurement was conducted according to the respective automated ROTEM® sequence. 300 µL citrated whole blood (obtained from healthy individuals) were used for each measurement. The pipetting of the respective liquid reagents was performed according to the sequence or was skipped for the solid reagents. […] Coagulation was initiated using the tissue factor based ex-tem® reagent.
The ex-tem® assay was selected because of the tissue factor coagulation activation and the resulting short clotting times (CT). Therefore it was possible to investigate whether the freeze-dried products containing a high amount of solid would dissolve rapidly enough to assure complete recalcification and clotting times within a normal range.

[5] = Glass transition temperature Tg by differential scanning calorimetry; assay type: physicochemical
Method: Hydranal® Coulomat AG Oven served as a reagent. About 10 mg of the substance was used for an expected residual moisture between 5 - 10%(m/m) and about 50 - 80 mg were used for an expected moisture content […]. […]
Primary drying was carried out at Tinlet = -30° C / 30mtorr for 15h followed by secondary drying at 40°C / 30mtorr for 6h with a heating rate between the two steps of 0.3 °C/min. The glass transition temperature as well as the residual moisture content were measured after freeze drying for the respective substance.

[6] = Dissolution of the freeze-dried product on contact with a water surface; assay type: physicochemical; settings: freeze-dried from c = 320 mg/mL
Excerpt: In addition, no collapse or meltback could be detected when CLG was freeze-dried appropriately. CLG is, however, evidently metastable as a solid, i.e. amorphous.

[7] = 300µL citrated whole blood, CLG solution 396 mg/mL or star-tem reagent, no tissue factor
[8] = freeze-dried CLG pellets, 4µmol equivalent
[9] = freeze-dried CLG pellets, lower amount of CLG

What does the source list for calcium lacto gluconate [CLG]?
mass increase [1]: < 0.1%; clotting time (CT), difference to star-tem solution (citrated whole blood [2]): no significant (student t test; probability p = 0.05, n = 10) difference; CFT (citrated whole blood [3]; [7]): 183.00; alpha (citrated whole blood [3]; [7]): 54.67 °; difference between clotting time (citrated whole blood [3]; CLG solution 396 mg/mL versus star-tem reagent): around 3%; A10 (citrated whole blood [3]; amplitude after 10 minutes, 300µL citrated whole blood, CLG solution 396 mg/mL or star-tem reagent, no tissue factor): 42.33; MCF (citrated whole blood [3]; maximum clot firmness, 300µL citrated whole blood, CLG solution 396 mg/mL or star-tem reagent, no tissue factor): 51.33; CT values, difference to reference (citrated whole blood [4]; freeze-dried CLG pellets versus 20µL star-tem reagent, ex-tem activation): no significant (p = 0.05; n = 10) difference; amplitudes after 10 minutes reaction time (A10), difference to reference (citrated whole blood [4]; [8]): Neither the clot formation times (CFT) nor the amplitudes after 10 minutes reaction time (A10) of the 4µmol equivalent did significantly (p = 0.05, n = 10) differ from the reference; clot formation times (CFT), difference to reference (citrated whole blood [4]; [8]): Neither the clot formation times (CFT) nor the amplitudes after 10 minutes reaction time (A10) of the 4µmol equivalent did significantly (p = 0.05, n = 10) differ from the reference; A10, difference to reference (citrated whole blood [4]; [9]): slight but significant (p = 0.05, n = 10) variations; CFT, difference to reference (citrated whole blood [4]; [9]): slight but significant (p = 0.05, n = 10) variations; glass transition ([5]; 1:1 (CL:CG) mixture, moisture content 5.71 % [m/m]): ~87.20 °C; glass transition ([5]; 2:1 (CL:CG) mixture, moisture content 6.52 % [m/m]): about 84.90 °C; Tg ([5]; CLG ratio 0, moisture content 0 %(m/m)): 110.03 °C; Tg ([5]; CLG ratio 0, moisture content 3.69 %(m/m)): 79.16 °C; Tg ([5]; CLG ratio 0, moisture content 9.86 %(m/m)): 29.77 °C; Tg ([5]; CLG ratio 0, moisture content 14.30 %(m/m)): 14.26 °C; Tg ([5]; CLG ratio 28.93, moisture content 0 %(m/m)): 125.01 °C; Tg ([5]; CLG ratio 28.93, moisture content 4.54 %(m/m)): 92.14 °C; Tg ([5]; CLG ratio 28.93, moisture content 5.71 %(m/m)): 87.20 °C; Tg ([5]; CLG ratio 28.93, moisture content 8.30 %(m/m)): 61.35 °C; Tg ([5]; CLG ratio 28.93, moisture content 9.91 %(m/m)): 40.75 °C; Tg ([5]; CLG ratio 50.44, moisture content 6.52 %(m/m)): 84.9 °C; Tg ([5]; CLG ratio 62.23, moisture content 0 %(m/m)): 144.37 °C; Tg ([5]; CLG ratio 62.23, moisture content 10.00 %(m/m)): 58.91 °C; Tg ([5]; CLG ratio 62.23, moisture content 10.37 %(m/m)): 56.54 °C; Tg ([5]; CLG ratio %(m(CL)/m(CLG)) = 100, moisture content 0 %(m/m) (annealed)): 152.06 °C; Tg ([5]; CLG ratio %(m(CL)/m(CLG)) = 100, moisture content 5.20 %(m/m)): 112.86 °C; Tg ([5]; CLG ratio %(m(CL)/m(CLG)) = 100, moisture content 10.15 %(m/m)): 58.45 °C; Tg ([5]; CLG ratio %(m(CL)/m(CLG)) = 100, moisture content […](m/m)): 34.39 °C; dissolution of the freeze-dried product [6]: dissolved rapidly and completely after a few seconds
